Data as given in patent US6375928B1, “Neutrophil stimulating peptides” (Peptech Limited, priority 1990, dated 2002).
Entries after “also recorded” stand apart in the source; their conditions may differ.

What was measured:
Type in all cases: cell-based
neutrophils [1] = test: Superoxide formation, cytochrome reduction assay
Text: The effect of peptides 308 and 309 (SEQ ID NOs. 10 & 11) on superoxide formation was examined by the cytochrome reduction assay, according to the procedure of Ferrante, 1989 (Infection and Immunity), 57: 2115-2122). The results, expressed as n moles of O2/5×10^5 cells as set out in Table 6.

human neutrophils [2] = test: Chemiluminescence assay: priming of neutrophils for F-met-leu-phe response (respiratory burst); details: for lucigenin dependent chemiluminescence, peak of response: 20 min pretreatment before f-met-leu-phe; for chemiluminescence (repeat experiment, Table 3): peptide + fMLP
Method: Purified human neutrophils were pretreated with peptide for 20 minutes before the addition of f-met-leu-phe. The lucigenin dependent chemiluminescence response, which reflects superoxide production, was then measured. The results obtained are set out in Table 2 and are expressed as mV of lucigenin dependent chemiluminescence and represent the maximal cell activity attained.
Results are expressed as mV of lucigenin dependent chemiluminescence and represent peak of response i.e. the maximal cell activity attained.

neutrophils [3] = test: Neutrophil random migration out of wells in agarose
Text: Migration of cells is an important property by which cells reach infection sites. Their accumulation at these sites is also dependent on the capacity of inflammatory mediators to inhibit their migration out of the sites.

neutrophils [4] = test: Neutrophil degranulation: Vitamin B12 binding protein release (specific granules); details: for Vitamin B12 Binding Protein, Exp. 1 / Vitamin B12 Binding Protein, Exp. 2 / Vitamin B12 Binding Protein, Exp. 3 / Vitamin B12 Binding Protein, Exp. 4: in the presence of CytoB
neutrophils [5] = test: Chemotactic properties, neutrophil migration under agarose
Method: 5 μl of neutrophils (2×10^5 cells) were added to the inner well, with chemotactic agent or control medium added to the outer wells. Migration at various time intervals was then measured.

human neutrophils [6] = test: Chemiluminescence assay: priming of neutrophils for F-met-leu-phe response (respiratory burst); details: peptide alone
neutrophils [7] = test: Neutrophil degranulation: β-glucuronidase release (azurophilic granules); details: for β-glucuronidase release, Exp. 1 / β-glucuronidase release, Exp. 2 / β-glucuronidase release, Exp. 3 / β-glucuronidase release, Exp. 4: in the presence of CytoB
[8] = peptide 100 μg/10^6 cells (or HBSS) + fMLP
[9] = peptide 100 μg/10^6 cells, no fMLP
[10] = towards agent well, 1 × 10^−7 M fMLP, peptide, or 10^3 U/ml TNFα, 2×10^5 neutrophils

G L Y L I Y S Q V L F K G Q G (GLYLIYSQVLFKGQG) [Peptide 308]
superoxide formation (neutrophils [1]; peptide + fMLP, 10 μg/5 × 10^5 cells): 5.00 n moles of O2/5×10^5 cells | superoxide formation (neutrophils [1]; peptide + fMLP, 100 μg/5 × 10^5 cells): 6.729 n moles of O2/5×10^5 cells | superoxide formation (neutrophils [1]; peptide alone, 10 μg/5 × 10^5 cells): 2.78 n moles of O2/5×10^5 cells | superoxide formation (neutrophils [1]; peptide alone, 100 μg/5 × 10^5 cells): 4.892 n moles of O2/5×10^5 cells | neutrophil stimulating activity / stimulation of neutrophil respiratory burst (in words) (human neutrophils [2]): neutrophil stimulating activity | priming of neutrophils for the respiratory burst associated with f-met-leu-phe treatment (in words) (human neutrophils [2]): found to prime human neutrophils for the respiratory burst; also recorded: particularly potent primer of neutrophils | lucigenin dependent chemiluminescence, peak of response (human neutrophils [2]; peptide 1 μg/10^6 cells): 0.91 mV | lucigenin dependent chemiluminescence, peak of response (human neutrophils [2]; peptide 10 μg/10^6 cells): 4.80 mV | lucigenin dependent chemiluminescence, peak of response (human neutrophils [2]; peptide 100 μg/10^6 cells): 49.52 mV | chemiluminescence (repeat experiment, Table 3) (human neutrophils [2]; 10 μg/10^6 cells): 2.74 mV | chemiluminescence (repeat experiment, Table 3) (human neutrophils [2]; 100 μg/10^6 cells): 28.56 mV | effect on neutrophil random migration (in words) (neutrophils [3]): potent inhibitors of neutrophil migration | Inhibition of Migration (neutrophils [3]; 10 μg/10^6 cells): 0% | Inhibition of Migration (neutrophils [3]; 100 μg/10^6 cells): 100% | release from specific granules (Vitamin B12 binding protein), in words (neutrophils [4]; absence of fMLP): decreased the release | Vitamin B12 Binding Protein, Exp. 1 (neutrophils [4]; [8]): 35.81 | Vitamin B12 Binding Protein, Exp. 2 (neutrophils [4]; [8]): 27.59 | Vitamin B12 Binding Protein, Exp. 3 (neutrophils [4]; [8]): 26.55 | Vitamin B12 Binding Protein, Exp. 4 (neutrophils [4]; [8]): 21.51 | Vitamin B12 Binding Protein, Exp. 1 (neutrophils [4]; [9]): 2.00 | Vitamin B12 Binding Protein, Exp. 2 (neutrophils [4]; [9]): 2.08 | Vitamin B12 Binding Protein, Exp. 3 (neutrophils [4]; [9]): 5.70 | Vitamin B12 Binding Protein, Exp. 4 (neutrophils [4]; [9]): 2.25 | release from specific granules (Vitamin B12 binding protein), in words (neutrophils [4]; presence of fMLP): still apparent following stimulation with fMLP | chemotactic properties (in words) (neutrophils [5]): strongly chemotactic | Migration distance at 1.5 h, Agent (neutrophils [5]; [10]): 0.66 mm | Migration distance at 2.5 h, Agent (neutrophils [5]; [10]): 1.41 mm | chemiluminescence (repeat experiment, Table 3) (human neutrophils [6]; 10 μg/10^6 cells): 1.00 mV | chemiluminescence (repeat experiment, Table 3) (human neutrophils [6]; 100 μg/10^6 cells): 11.76 mV | release from azurophilic granules (β-glucuronidase), in words (neutrophils [7]; absence of fMLP): decreased the release | β-glucuronidase release, Exp. 1 (neutrophils [7]; [8]): 17.57% | β-glucuronidase release, Exp. 2 (neutrophils [7]; [8]): 28.86% | β-glucuronidase release, Exp. 3 (neutrophils [7]; [8]): 17.86% | β-glucuronidase release, Exp. 4 (neutrophils [7]; [8]): 18.20% | β-glucuronidase release, Exp. 1 (neutrophils [7]; [9]): 0.8% | β-glucuronidase release, Exp. 2 (neutrophils [7]; [9]): 0.65% | β-glucuronidase release, Exp. 3 (neutrophils [7]; [9]): 2.76% | β-glucuronidase release, Exp. 4 (neutrophils [7]; [9]): 0.72% | release from azurophilic granules (β-glucuronidase), in words (neutrophils [7]; presence of fMLP): still apparent following stimulation with fMLP
